Reference: patent publication US20240009204A1 (Starton Therapeutics, Inc., priority 2020, published 2024)
Marks after values point to notes of the source that are not given here.

Assays:
[1] = clinical; conditions: human, plasma, po
[2] = tested on: healthy female volunteers; test: Phase 1 study: antiemetic effect of oral olanzapine doses after apomorphine challenge; assay type: in vivo, human; conditions: for Nausea Score 1-120 min. / Nausea Score 1-120 min. (severity in words) / Retching (incidence) / Vomiting (incidence): apomorphine challenge day 8; for Nausea Score 1-120 min.: 1=no nausea, 10=severe nausea
Description: Twenty-four healthy female volunteers were enrolled. Four active-treatment groups and a cohort of placebo-treated subjects were evaluated.
Subjects were administered study drug once daily for 8 days. During this period, subjects maintained a study diary of their side effects. The subject diary was used to collect on a daily basis any adverse events including an assessment of the presence and/or intensity of sedation on a numeric scale where 1=no sedation and 10=excessive sedation.
On the 8th day, subjects were administered apomorphine at a dose of 0.05 mg/kg and assessed over 6 hours. During this period, subjects were asked to record episodes of nausea on a numeric scale every 15 minutes for the duration of assessment. The intensity of nausea was captured using a 1-10 rating scale where 1=no nausea and 10=severe nausea. Emesis intensity was also captured where 1=no emesis and 10=severe emesis. Episodes of retching or emesis were collected and measured for the absolute number of retches or vomits during the collection period and documented for the time of the specific event following the administration of the apomorphine.

[3] = oral, statistical integration of nausea scores and incidence of retching and vomiting

## Cc1cc2c(s1)Nc1ccccc1N=C2N1CCN(C)CC1 [olanzapine, 2-methyl-10-(4-methyl-1-piperazinyl)-4H-thieno-[2,3-b][1.5]benzo-diazepine]
[1]; 4 mg
  Cmax at 1 day: 4 to 6 ng/mL
[1]; 6 mg
  Cmax at 1 day: 6 to 9 ng/mL
[2]; 2 mg and 8 mg doses
  Nausea severity scores 0-120 min following apomorphine challenge, versus placebo: not significantly different than placebo
[2]; 4 mg and 6 mg steady state doses, p<0.05
  Nausea severity scores 0-120 min following apomorphine challenge, versus placebo: significantly different than placebo
[2]; between the 4 mg, 6 mg and 8 mg dose
  maximum intensity of nausea, compared between doses: no different
[2]; oral 2 mg a day for 8 days
  Nausea Score 1-120 min.: 6**
[2]; oral 2 mg a day
  Nausea Score 1-120 min. (severity in words): Moderate
  Retching (incidence): 40%
  Vomiting (incidence): 40%
[2]; oral 4 mg a day for 8 days
  Nausea Score 1-120 min.: 3.4 #
[2]; oral 4 mg a day
  Nausea Score 1-120 min. (severity in words): Mild
  Retching (incidence): 0%
  Vomiting (incidence): 20%
[2]; oral 6 mg a day for 8 days
  Nausea Score 1-120 min.: 3.7 #
[2]; oral 6 mg a day
  Nausea Score 1-120 min. (severity in words): Mild
  Retching (incidence): 0%
  Vomiting (incidence): 0%
[2]; oral 8 mg a day for 8 days
  Nausea Score 1-120 min.: 5**
[2]; oral 8 mg a day
  Nausea Score 1-120 min. (severity in words): Mild
  Retching (incidence): 20%
  Vomiting (incidence): 20%
[2]; [3]
  minimum effective dose for nausea: 4 mg a day
  optimal dose for nausea and vomiting: 6 mg a day
